ChEMBL document CHEMBL1201862, “PubChem BioAssay data set” (2004)
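Interpolation was linear, between the two tested concentrations surrounding the appropriate level; five concentrations were tested over 48 hours in 96-well plates. Abbreviation: GI50, concentration required for 50% inhibition of growth.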 Calls of active or inactive are those of the source. No stated cut-off is given here; in the data, active = GI50 up to about 1.1 µM and inactive = higher.

Legend:
Experiment in all cases: DTP human tumour cell line panel, 48 h
MDA-MB-231 = tested on: MDA-MB-231
MCF7 = tested on: MCF7
DU-145 = tested on: DU-145
T47D = tested on: T47D
MDA-MB-435 = tested on: MDA-MB-435
BT-549 = tested on: BT-549
Hs-578T = tested on: Hs-578T

Measured: GI50

O=C(OC1C=C=CS(=O)(=O)CC#C/C=C\1)c1cnc2ccccc2n1 (centres undefined)
inactive: MDA-MB-231 28.8 µM | MCF7 27.5 µM | DU-145 > 100 µM | T47D > 100 µM | MDA-MB-435 > 100 µM | BT-549 > 100 µM | Hs-578T > 100 µM

COc1cc(/C=N\O)cc(/C=N/O)c1O
inactive: MDA-MB-231 47.3 µM | MCF7 60.8 µM | DU-145 > 100 µM | T47D 26.4 µM | MDA-MB-435 40 µM | BT-549 45.2 µM | Hs-578T 17.6 µM
